The text below walks through data of patent US11478466B2, “Small molecule promoting osteoblast differentiation” (Cornell University, priority 2019, dated 2022).

The structures appear in SMILES notation.

For one experiment, the system named is C2C12 cells. As to the kind of experiment: qRT-PCR of osteoblast differentiation transcripts in C2C12 cells. The experiment is classed as cell-based, mouse. The following applies: C2C12, 10 μM. The protocol: For quantitative RT-PCR analysis of gene expression in C2C12 cultures, cells were treated for 2 days with 10 μM DIPQUO and harvested into Trizol reagent (Invitrogen). One microgram of RNA was reverse transcribed using the VILO-RT kit (Invitrogen) to generate cDNA, which was diluted 1:25 in RNase-free H2O for qPCR with Sybr green using the Roche 480 II LightCycler and the 2^−ΔΔCT method (Livak and Schmittgen, 2001). For analysis of osteoclast gene expression, RAW 264.7 cells were treated with DMSO, 50 ng/ml RANKL, or 10 μM DIPQUO for 4 days, then harvested into Trizol reagent and processed as above. Mouse qPCR primers are as follows. Runx2: F([…]) (SEQ ID NO:1); R([…]) (SEQ ID NO:2); Dlx5: F([…]) (SEQ ID NO:3); R([…]) (SEQ ID NO:4); Osterix: F([…]) (SEQ ID NO:5); R([…]) (SEQ ID NO:6); ALP: F([…]) (SEQ ID NO:7); R([…]) (SEQ ID NO:8); Osteocalcin: F([…]) (SEQ ID NO:9); R([…]) (SEQ ID NO:10); Osteoactivin: F([…]) (SEQ ID NO:11); R([…]) (SEQ ID NO:12); CTSK: F([…]) (SEQ ID NO:13); R([…]) (SEQ ID NO:14); MMP9: F([…]) (SEQ ID NO:15); R([…]) (SEQ ID NO:16); Gapdh F([…]) (SEQ ID NO:17); R([…]) (SEQ ID NO:18). RNA-seq studies were carried out with the assistance of the Weill Cornell Genomics Core Facility, using the Illumina HiSeq4000 next-generation sequencer to generate reads from cDNA libraries generated from three biological replicates of day 2 DMSO- or DIPQUO-treated C2C12 cells. Gene sets were clustered by biological/disease function using Ingenuity Pathway Analysis (Qiagen Bioinformatics). Heatmaps with hierarchical clustering were generated in R using the CRAN package for a subset of genes involved in bone morphogenesis. Following normalization of the RNA Sequencing counts in DeSeq, z-scores were computed across samples within each gene for use in the heatmap. The accession number for the sequencing data reported in this paper is NCBI GEO: GSE125052.

A further experiment has as its system AP-1 response element. Kind of experiment: AP-1 response element luciferase reporter assay. The note with it: 293T HEK cells, 7 hours, various concentrations. In kind it is cell-based. The protocol: For AP-1 reporter assays, 293T HEK cells were seeded at 0.25×10^6 cells/well of a gelatin-coated 24-well plate one day before transfection. Plasmid transfections were performed using Lipofectamine LTX (Invitrogen) according to manufacturer's protocol. Briefly, 293T HEK cells were co-transfected with pGL4.44 AP1 [luc2P/AP1 RE/Hygro] reporter plasmid (Promega) and SV40Renilla plasmid as a transfection control. 24 hours after transfection, cells were incubated in serum free DMEM media for 24 hours. The following day, cells were treated with 10 ng/ml PMA (Phorbol 12-myristate 13-acetate; Tocris) or indicated concentration of DIPQUO in serum free DMEM for 7 hours prior to lysis with 1× Passive Lysis buffer (Promega). Luciferase expression was measured using Dual-Glo Luciferase Assay (Promega).
(In general: A reporter such as luciferase makes a cellular process visible.)

For a further experiment, the system named is adult zebrafish. Kind of experiment: Adult zebrafish caudal fin regeneration model. In kind it is in vivo, Danio rerio. The following applies: 15 μM in tank water, 26 h regeneration at 32° C., vs DMSO. The source says:
We next tested the regenerative capabilities of zebrafish, which have a robust capacity to replace and renew organs and tissues derived from all three germ layers. Regenerating fin joints are reported to constitute a pre-osteoblast niche from which OSX-expressing (Sp7+) osteoblasts radiate de novo (Ando et al., 2017). Simultaneously, osteoblasts and osteogenic hypertrophic chondrocytes in both early and later stages of differentiation express collagen10 (col10a1) (Huycke et al., 2012).
Animals studies were performed according to protocols approved by the WCMC IACUC. Wildtype (AB/TU hybrid) zebrafish were maintained at 28.5° C. Larval fish were treated from 7 dpf to 8 dpf in tank water with DMSO or with a 24-hour pulse of 15 μM DIPQUO or inert analog BT344 or BT345, and were fixed at 9 dpf in 4% paraformaldehyde overnight rocking at 4° C. Fixed larvae were washed in PBS-0.1% Tween-20 (PBST), followed by 50% ethanol/50% PBST. Larvae were transferred to staining solution (66.5% ethanol, 100 mM MgCl2, 0.02% alizarin red) and incubated for 40 hours, rocking at room temperature in the dark. Larvae were washed in H2O+0.1% Tween-20, and excess stain removed by bleaching for approximately 10 minutes in the dark with a 1:1 mixture of 3% […] and 2% KOH. […] Images were acquired on a Zeiss LSM 800 confocal microscope and Sp7^+/col10a1^+ cells quantified using ImageJ.

Take `Cc1cc(C)c2[nH]c(=O)c(-c3[nH]cnc3-c3ccccc3)cc2c1` [RU-0226606, 6,8-dimethyl-3-(4-phenyl-1H-imidazol-5-yl)quinolin-2(1H)-one]: the “changes in expression of OCN and Osteoactivin (qRT-PCR)” value in the experiment on C2C12 cells (2 days, compared with BMP-treated positive controls) is listed as “much higher with DIPQUO treatment than in BMP-treated positive controls”. Moreover, in the experiment with C2C12 cells (2 days, vs DMSO), the “expression of Runx2 and Osterix (qRT-PCR)” value is given as “significant upregulation”. For the same compound, the “expression of ALP and OCN (qRT-PCR)” value in the experiment on C2C12 cells (day 2, vs DMSO) is “substantially increased by day 2”. Also, the “AP-1 response element luciferase reporter activation” value in the experiment with AP-1 response element was “Neither did DIPQUO stimulate activation”. The “number of Sp7+/Col10a1+ cells emanating from new fin ray joints” value in the experiment on adult zebrafish was “significantly increased”.
